Common to all, as to type: cell-based, human
In data set [1] the test system is HCT116N cells. As to the kind of experiment: Cell death mode flow cytometry assay (YO-PRO-1 / PI dye exclusion). To be noted: 20 μM, 72 hours, untreated 62±0.6%. The source says: (§1) To characterize the cell death occurring in response to rhodium treatment, a dye exclusion flow cytometry assay was used as described in Idziorek et al., 1995 J. Immunol. Methods, 185, 249-258, the entire contents of which is incorporated herein by reference. The assay differentiates between live cells, dead cells, and cells undergoing apoptosis or necrosis through concurrent staining with propidium iodide (a dead cell permeable dye) and YO-PRO-1 (an apoptotic cell permeable dye). By plotting the fluorescence of the YO-PRO-1 channel against the PI channel, a pattern emerges. Healthy cells are seen in the lower lefthand corner of the plot in FIGS. 36A-36D. […] Dead cells admit both dyes and are therefore seen in the upper righthand quadrant of the image. Upon flow cytometry analysis, cells can be classified as live, apoptotic, necrotic, or dead by defining regions in the fluorescence plane corresponding to each category.
(§2) The HCT116N and HCT116O cell lines were incubated with 0-25 μM of [Rh(HDPA)2chrysi]^3+ for 24-72 hours. After harvesting the cells and staining with both PI and YO-PRO-1, the cells were analyzed by flow cytometry to obtain raw fluorescence data. Representative data for 20 μM rhodium treatment for 72 hours are shown. YO-PRO-1 fluorescence is shown on the y-axis, and PI fluorescence is shown on the x-axis. The raw data were analyzed by gating the fluorescence events into one of four categories, depending on the fluorescence levels of the two dyes. FIGS. 37A-37B also show histograms of live, apoptotic, necrotic, and dead cells for the HCT116N and HCT116O cell lines based on the flow cytometry. Treatment with the indicated rhodium complex was either 15 or 20 µM [Rh(HDPA)2chrysi]^3+ for 72 hours.
(§3) After 24, 48, or 72 hour incubation with the selected rhodium complex, cells were harvested from adherent culture by trypsinization and washed with cold PBS, and centrifuged at 2,000 rpm for 5 minutes. The resultant pellets were resuspended in PBS to a concentration of 10^6 cells/mL and stained with propidium iodide to a final concentration of 1 μg/mL and with YO-PRO-1 (an apoptotic cell permeable dye) to a final concentration of 200 nM for 30 minutes prior to analysis by flow cytometry.
In general terms: In flow cytometry, cells or beads pass a laser one at a time.

The subject of data set [2] is HCT116O cells. The description is as above. To be noted: for mode of cell death: YO-PRO-1 and PI, HCT116O versus HCT116N.
Source text: as §1, §2, §3

In data set [3] the test system is HCT116O cells. Nature of the data set: MTT cytotoxicity assay. As to the method: Cytotoxicity assays were performed as described in Mosmann, 1983, J. Immunol. Methods, 65, 55-63, the entire contents of which is incorporated herein by reference. HCT116N and HCT116O cells were plated in 96-well plates at 50,000 cells/well and incubated with rhodium for the durations specified. After incubation with the indicated rhodium complexes, cells were labeled with MTT for 4 hours at 37° C. under 5% CO2 and humidified atmosphere. The resulting formazan crystals were dissolved with solubilizing reagent purchased from Roche according to the manufacturer's instructions. The dissolved formazan was quantified as the absorbance at 570 nm minus the background absorbance at 690 nm. Percent viability was determined as the ratio of the amount of formazan in the treated cells to that of the untreated cells.
In order to elucidate the mechanism of action for the cytotoxicity caused by a metalloinsertor complex of Formula I, the MTT cytotoxicity assay was repeated in the absence and presence of the pan-caspase inhibitor Z-VAD-FMK. This inhibitor works by irreversibly binding to the active site of caspases which participate in the apoptotic pathway. […] The HCT116N and HCT116O cell lines were treated with 0-30 μM of the [Rh(HDPA)2chrysi]^3+ complex for 24-72 hours. […]
In order to determine the mechanism of action for cytotoxicity caused by a metalloinsertor complex of Formula I, the MTT cytotoxicity assay was repeated in conjunction with a panel of poly-ADP ribose polymerase (PARP) inhibitors: DPQ, 3-AB, 4-AN, and ABT-888, as described in Costantino et al., 2001, J. Med. Chem., 44, 3786-3794; Purnell et al., 1980, Biochem. J. 185, 775-777; Banasik et al., 1992, J. Biol. Chem. 267, 1569-1575; and Donawho et al., 2007, Clin. Cancer Res., 13, 2728-2737, the entire contents of all of which are incorporated herein by reference. The HCT116N and HCT116O cell lines were treated with 0 or 20 μM of the [Rh(HDPA)2chrysi]^3+ complex for 72 hours, with or without one of the four inhibitors. The inhibitor 3,4-Dihydro-5[4-(1-piperindinyl)butoxy]-1(2H)-isoquinoline (DPQ) was added to a final concentration of 0, 25, or 50 μM; the inhibitor 3-aminobenzamide (3-AB) was added to a final concentration of 0, 2, or 3 mM; the inhibitor 4-amino-1,8-napthalimide (4-AN) was added to a final concentration of 0, 10, or 20 μM; and the inhibitor 2-((R)-2-Methylpyrrolidin-2-yl)-1H-benzimidazole-4-carboxamide (ABT-888) was added to a final concentration of 0, 5, or 10 μM. […] For example, in the case of the compound DPQ, this difference was 43±2.7% without inhibitor and 0.6±3.0% with inhibitor.

The source of these data is patent publication US9051345B2, “Metalloinsertor complexes targeted to DNA mismatches” (CALIFORNIA INSTITUTE OF TECHNOLOGY, priority 2011, dated 2015).

As to [Rh(HDPA)2chrysi]^3+, the “live cells HCT116N after treatment” value in data set [1] was 54±5.1%. Further, the “live cells HCT116O after treatment” value in data set [2] (20 μM, 72 hours, untreated 79±3.8%) is 37±5.3%. Besides, the “mode of cell death” value in data set [2] is listed as “induces necrosis preferentially in the MMR-deficient HCT116O cell line”; in data set [2] (listed as [Rh(HDPA)2chrysi]3^+) it was “necrotic rather than apoptotic pathway”. Further, the “change in percentage of cells in the apoptotic region” value in data set [2] (either cell line) was “no significant change”. Moreover, in data set [3] (MTT with or without Z-VAD-FMK), the “caspase dependence of the selective cell death” value is recorded as “caspase-independent”. For the same substance, the “number of viable HCT116O cells, % of untreated controls” value in data set [3] (MTT, 20 μM, 72 hours) came to 37±4.4%. The “difference between percentage of viable HCT116N cells and percentage of viable HCT116O cells, with DPQ” value in data set [3] (MTT, 20 μM, 72 hours, with PARP inhibitor DPQ) is on record as 0.6±3.0%. Further, the “difference between percentage of viable HCT116N cells and percentage of viable HCT116O cells” value in data set [3] (MTT, 20 μM, 72 hours, without inhibitor) is recorded as 43±2.7%. For the same substance, the “cell viability HCT116O with caspase inhibitor” value in data set [3] (MTT, 30 μM metal complex, 72 hours, with Z-VAD-FMK at 20 M (so in the source)) turned out to be 9.8±7.8%. In addition, the “cell viability HCT116O” value in data set [3] (MTT, 30 μM metal complex, 72 hours, without inhibitor) came to 9.7±4.4%. Further, the “toxicity in MMR-deficient HCT116O versus HCT116N cells at 48 hours” value in data set [3] (MTT, 48 hours) was “enhance toxicity in the MMR-deficient HCT116O cells”. For the same substance, the “cell viability HCT116O without inhibitor (40 μM caspase inhibitor experiment)” value in data set [3] (MTT, rhodium alone, control arm of the 40 μM Z-VAD-FMK experiment) is given as 16±10%. In data set [3] (MTT, rhodium plus Z-VAD-FMK 40 μM), the “cell viability HCT116O with caspase inhibitor 40 μM” value amounted to 28±3.7%.
